Measured values published in patent publication EP0091519A1, “Topical acylaminophenols” (Johnson & Johnson Products Inc., priority 1982, dated 1983).

Experiments:
[1] = tested on: arachidonic acid-induced erythema; assay: Arachidonic acid-induced erythema in guinea pig ear skin (subjective score 0 to 3, area under response curve); type: in vivo; details: for Total Erythema: area under curve of average erythema score (0 to 3) over four days; for inhibition in vivo at 1 %: Cavia porcellus, versus contralateral vehicle-treated ear, read-out: % Re-duction (Total Erythema); for effect on AA-induced erythema (in words): topical application, 1% unless otherwise stated
Experimental: (§1) The effect of selected compositions on cutaneous inflammation caused by topical application of arachidonic acid was evaluated. In addition to inflammation, the proliferative response of the epidermis treated with arachidonic acid and the compositions was evaluated. Fourteen acylaminophenols were studied. The drugs were dissolved in propylene glycol plus ethanol (30:70) and were used at 1% concentrations unless otherwise stated. Fourteen groups of five guinea pigs each served as the experimental subjects. The dorsal skin of both ears was treated once daily for four days (9:00 am) with 25 µl 1% solution of AA in propylene glycol/ethanol (30/70). Immediately after this application, one ear of each guinea pig was randomly chosen for application of 25 µl of the test compound, while the contralateral ear received the vehicle, alone. During the four-day experimental period, DNA synthesized was labeled by continuous administration of a radioactive'precursor, ^3H-thymidine (3 i.p. injections/day of 10µCi each). Erythema developing in response to topical AA was measured daily on a subjective scale of 0 to 3; where 0 = none,1= mild, 2 = moderate, and 3 = intense. The average erythema scores were plotted as a function of time, and areas under the response curves were determined for expression of total erythema. On the fifth day, animals were killed and six mm diameter circular samples of dorsal skin from the central portion of the treatment sites were harvested and solubilized in NCS® solubilizer. These tissue solutions were acidified and a simple fluor (diphenyloxazole in toluene) was added for determination of radioactivity by liquid scintillation counting. Radioactivity expressed as counts-per-minute (cpm) correlate with the amount of proliferative activity in the epidermis.

[2] = tested on: arachidonic acid-induced epidermal proliferation; assay: Arachidonic acid-induced epidermal proliferation in guinea pig ear skin (3H-thymidine labelling, liquid scintillation counting); type: in vivo; details: for cpm S.E.: 25 µl topical on ear once daily for four days after 1% AA, mean ± S.E.; for inhibition in vivo at 1 %: Cavia porcellus, 1% drug topical, versus contralateral vehicle-treated ear, * statistically significant, + not significant due to variability, read-out: % Re-duction (cpm, proliferation); for effect on AA-induced proliferation (in words): topical application, 1% unless otherwise stated
Experimental: as §1

[3] = 1% drug in propylene glycol/ethanol (30:70), 6 mm skin sample on fifth day

Structure (SMILES)	Total Erythema ([1]; 1% drug topical)	inhibition in vivo at 1 % ([1]; 1% drug topical) [%]	effect on AA-induced erythema (in words) [1]	cpm S.E. [2, 3] [cpm]	inhibition in vivo at 1 % [2] [%]	effect on AA-induced proliferation (in words) [2]	Total Erythema ([1]; 0.56% drug topical)	cpm S.E. ([2]; 0.56% drug in propylene glycol/ethanol (30:70)) [cpm]
O=C(Nc1ccc(O)cc1)c1ccccc1 [4-benzoylaminophenol, reference compound]	3.8	20.8	inactive	2214±316	4.2	inactive	–	–
CCCCCCCCCC(=O)Nc1ccc(O)cc1 [4-n-decanoylaminophenol]	2.0	47.4	good activity	1311± 48	37.5	good activity	–	–
CCCCCCCCCCCC(=O)Nc1ccc(O)cc1 [4-n-dodecanoylaminophenol]	3.8	29	good activity	2487±368	29	good activity	–	–
CCCC(=O)Nc1ccc(O)cc1 [4-n-butyroylaminophenol, reference compound]	4.6	4.2	without effect	2680±360	27.8	significantly inhibited	–	–
CCCCCC(=O)Nc1ccc(O)cc1 [4-n-hexanoylaminophenol]	1.9	50	good activity	1488±104	28.3	good activity	–	–
CC(=O)Nc1ccc(O)cc1 [Acetaminophen, acetamidophenol, reference compound]	5.2	0	no significant effect	3140±346	8	no significant effect	–	–
CCCCCCCCCCC(=O)Nc1ccc(O)cc1 [4-n-undecanoylaminophenol]	2.1	38.2	good activity	1380±205	37.3	good activity	–	–
CCC(=O)Nc1ccc(O)cc1 [4-propionylaminophenol, reference compound]	5.5	-14.6	without substantial effect	1777±251	2.6	without substantial effect	–	–
CCCCCCCCCCCCCCCC(=O)Nc1ccc(O)cc1 [4-n-hexadecanoylaminophenol, reference compound]	–	–	without substantial effect	–	–	without substantial effect	4.8	3275±463
CCCCCCCCCCCCCC(=O)Nc1ccc(O)cc1 [4-n-tetradecanoylaminophenol, reference compound]	3.8	0	without substantial effect	1681±296	15.1	without substantial effect	–	–
CCCCCCCCC(=O)Nc1ccc(O)cc1 [4-n-nonanoylaminophenol]	2.1	34.4	good activity	1472±135	20.9	good activity	–	–
CCCCCCCC(=O)Nc1ccc(O)cc1 [4-n-octanoylaminophenol]	2.7	49	good activity	1589±361	39.1	good activity	–	–
CCCCCCC(=O)Nc1ccc(O)cc1 [4-n-heptanoylaminophenol]	1.8	47	good activity	1435± 77	27.3	good activity	–	–
O=C(Nc1ccc(O)cc1)c1ccccc1O	3.2	41.8	showed activity	1532± 91	23.3	showed activity	–	–
